Measurements as given in ChEMBL document CHEMBL5608241, “Discovery of Novel Non-nucleoside DOT1LR231Q Inhibitors with Improved Pharmacokinetic Properties and Anti-lung Cancer Efficacy” (J Med Chem, 2024).
Calls of active or inactive are those of the source. No cut-off for these calls is given here.

What was measured:
[1] = Toxicity in male BALB/c-nu mouse model xenografted with human NCI-H460 cells harboring DOT1L R231Q mutant assessed as effect on lung viscera index at 20 mg/kg, ip administered five times a week for 3 weeks; format: organism-based; details: in vivo, 504 h
[2] = tested on: NCI-H460; assay: Inhibition of ERK phosphorylation in human NCI-H460 cells exogenously expressing wildtype DOT1L (unknown origin) (1 to 416 residues) at 5 uM by Western blot analysis; format: cell-based
[3] = tested on: NCI-H460; assay: Inhibition of colony formation in human NCI-H460 cells exogenously expressing DOT1L R231Q mutant (unknown origin) (1 to 416 residues) at 2.5 to 5 uM incubated for 7 to 14 days by crystal violet staining based light microscopic analysis; format: functional, cell-based; details: dose 2.5-5 µM, time 7-14 day
[4] = tested on: NCI-H460; assay: Effect on H3K4me1 expression in human NCI-H460 cells exogenously expressing wildtype DOT1L (unknown origin) (1 to 416 residues) at 5 uM by Western blot analysis; format: functional, cell-based
[5] = tested on: NCI-H460; assay: Effect on H3K36me2 expression in human NCI-H460 cells exogenously expressing wildtype DOT1L (unknown origin) (1 to 416 residues) at 5 uM by Western blot analysis; format: functional, cell-based
[6] = tested on: NCI-H460; assay: Inhibition of colony formation in human NCI-H460 cells exogenously expressing DOT1L R231Q mutant (unknown origin) (1 to 416 residues) at 5 uM incubated for 7 to 14 days by crystal violet staining based light microscopic analysis relative to control; format: functional; details: time 7-14 day
[7] = tested on: NCI-H460; assay: Antiinvasive activity against human NCI-H460 cells exogenously expressing wildtype DOT1L (unknown origin) (1 to 416 residues) assessed as inhibition of cell invasion at 2.5 to 5 uM incubated for 72 hrs by crystal violet staining based transwell invasion assay; format: functional; details: dose 2.5-5 µM
[8] = Cmax in male Sprague-Dawley rat at 20 mg/kg, iv measured after 24 hrs by LC-MS/MS analysis; format: ADME, organism-based; details: in vivo
[9] = tested on: NCI-H460; assay: Inhibition of ERK phosphorylation in human NCI-H460 cells exogenously expressing DOT1L R231Q mutant (unknown origin) (1 to 416 residues) at 5 uM by Western blot analysis; format: cell-based
[10] = tested on: NCI-H460; assay: Effect on H3K9me2 expression in human NCI-H460 cells exogenously expressing wildtype DOT1L (unknown origin) (1 to 416 residues) at 5 uM by Western blot analysis; format: functional, cell-based
[11] = tested on: NCI-H460; assay: Antimigratory activity in human NCI-H460 cells exogenously expressing wildtype DOT1L (unknown origin) (1 to 416 residues) assessed as decrease in number of migrating cells at 5 uM measured after 72 hrs by wound healing assay relative to control; format: functional; parameters: scale not given: the % may be the effect or the level left
[12] = tested on: NCI-H460; assay: Antimigratory activity in human NCI-H460 cells exogenously expressing DOT1L R231Q mutant (unknown origin) (1 to 416 residues) assessed as decrease in number of migrating cells at 5 uM measured after 72 hrs by wound healing assay relative to control; format: functional; parameters: scale not given: the % may be the effect or the level left
[13] = tested on: NCI-H460; assay: Antiinvasive activity against human NCI-H460 cells exogenously expressing DOT1L R231Q mutant (unknown origin) (1 to 416 residues) assessed as inhibition of cell invasion at 2.5 to 5 uM incubated for 72 hrs by crystal violet staining based transwell invasion assay; format: functional; details: dose 2.5-5 µM
[14] = AUC (0 to infinity) in male Sprague-Dawley rat at 20 mg/kg, iv measured after 24 hrs by LC-MS/MS analysis; format: ADME, organism-based; details: in vivo
[15] = tested on: NCI-H460; assay: Inhibition of MAPK/ERK signaling pathway in human NCI-H460 cells exogenously expressing DOT1L R231Q mutant (unknown origin) (1 to 416 residues) assessed as decrease in RAF1 expression at 5 uM by Western blot analysis; format: cell-based
[16] = tested on: NCI-H460; assay: Inhibition of sphere formation in human NCI-H460 cells exogenously expressing DOT1L R231Q mutant (unknown origin) (1 to 416 residues) assessed as reduction in self-renewal at 2.5 to 5 uM incubated for 7 to 14 days by inverted microscopic analysis; format: functional, cell-based; details: dose 2.5-5 µM, time 7-14 day
[17] = target: Dual specificity mitogen-activated protein kinase kinase; MEK1/2 (Homo sapiens) (UniProt P36507+Q02750); assay: Inhibition of MEK phosphorylation in human NCI-H460 cells exogenously expressing DOT1L R231Q mutant (unknown origin) (1 to 416 residues) at 5 uM by Western blot analysis; format: cell-based
Sequence of Dual specificity mitogen-activated protein kinase kinase; MEK1/2 (Homo sapiens) (P36507 whole entry, looked up, the tested form may be a part): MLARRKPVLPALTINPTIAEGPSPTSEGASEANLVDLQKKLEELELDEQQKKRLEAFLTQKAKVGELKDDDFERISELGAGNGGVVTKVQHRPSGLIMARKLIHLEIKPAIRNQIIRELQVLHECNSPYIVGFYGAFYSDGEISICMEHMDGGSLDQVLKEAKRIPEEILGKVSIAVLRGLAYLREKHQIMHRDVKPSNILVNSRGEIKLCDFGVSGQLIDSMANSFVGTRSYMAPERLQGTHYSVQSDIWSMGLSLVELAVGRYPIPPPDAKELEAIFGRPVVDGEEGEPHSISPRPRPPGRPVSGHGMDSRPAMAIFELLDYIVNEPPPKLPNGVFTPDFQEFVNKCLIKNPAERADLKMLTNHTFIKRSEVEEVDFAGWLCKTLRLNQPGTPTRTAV
Sequence of Dual specificity mitogen-activated protein kinase kinase; MEK1/2 (Homo sapiens) (Q02750 whole entry, looked up, the tested form may be a part): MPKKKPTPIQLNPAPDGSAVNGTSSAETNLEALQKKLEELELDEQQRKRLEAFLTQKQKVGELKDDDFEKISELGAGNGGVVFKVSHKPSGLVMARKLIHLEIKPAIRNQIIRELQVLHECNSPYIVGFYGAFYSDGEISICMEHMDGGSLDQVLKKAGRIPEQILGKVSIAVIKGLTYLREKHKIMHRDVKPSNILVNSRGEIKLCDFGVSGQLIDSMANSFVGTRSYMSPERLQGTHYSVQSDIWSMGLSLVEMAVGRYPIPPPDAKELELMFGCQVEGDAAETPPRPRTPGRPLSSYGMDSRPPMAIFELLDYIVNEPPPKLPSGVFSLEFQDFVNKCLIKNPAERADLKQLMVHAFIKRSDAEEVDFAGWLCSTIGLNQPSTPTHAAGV

[18] = MRT (0 to infinity) in male Sprague-Dawley rat at 20 mg/kg, iv measured after 24 hrs by LC-MS/MS analysis; format: ADME, organism-based; details: in vivo
[19] = tested on: NCI-H460; assay: Induction of DOT1L R231Q mutant (unknown origin) (1 to 416 residues) stabilization exogenously expressed in human NCI-H460 cells assessed as protection against protease E-mediated degradation preincubated for 7 days followed by protease digestion for 10 mins by DARTS assay; format: cell-based; details: dose 1.25-5 µM, time 10090.0 min
[20] = tested on: NCI-H460; assay: Effect on H3K27me3 expression in human NCI-H460 cells exogenously expressing DOT1L R231Q mutant (unknown origin) (1 to 416 residues) at 5 uM by Western blot analysis; format: functional, cell-based
[21] = tested on: NCI-H460; assay: Inhibition of sphere formation in human NCI-H460 cells exogenously expressing wildtype DOT1L (unknown origin) (1 to 416 residues) assessed as reduction in self-renewal at 5 uM incubated for 7 to 14 days by inverted microscopic analysis relative to control; format: functional; details: time 7-14 day
[22] = tested on: NCI-H460; assay: Inhibition of sphere formation in human NCI-H460 cells exogenously expressing wildtype DOT1L (unknown origin) (1 to 416 residues) assessed as reduction in self-renewal at 2.5 to 5 uM incubated for 7 to 14 days by inverted microscopic analysis; format: functional, cell-based; details: dose 2.5-5 µM, time 7-14 day
[23] = tested on: NCI-H460; assay: Antimigratory activity in human NCI-H460 cells exogenously expressing wildtype DOT1L (unknown origin) (1 to 416 residues) assessed as decrease in number of migrating cells at 2.5 to 5 uM measured after 72 hrs by wound healing assay; format: functional, cell-based; details: dose 2.5-5 µM
[24] = AUC (0 to infinity) in male Sprague-Dawley rat at 20 mg/kg, ip measured after 24 hrs by LC-MS/MS analysis; format: ADME, organism-based; details: in vivo
[25] = Volume of distribution at steady state in male Sprague-Dawley rat at 20 mg/kg, iv measured after 24 hrs by LC-MS/MS analysis; format: ADME, organism-based; details: in vivo, read-out: Vdss
[26] = tested on: NCI-H460; assay: Inhibition of colony formation in human NCI-H460 cells exogenously expressing wildtype DOT1L (unknown origin) (1 to 416 residues) at 2.5 to 5 uM incubated for 7 to 14 days by crystal violet staining based light microscopic analysis; format: functional, cell-based; details: dose 2.5-5 µM, time 7-14 day
[27] = tested on: NCI-H460; assay: Inhibition of colony formation in human NCI-H460 cells exogenously expressing wildtype DOT1L (unknown origin) (1 to 416 residues) at 5 uM incubated for 7 to 14 days by crystal violet staining based light microscopic analysis relative to control; format: functional; details: time 7-14 day
[28] = tested on: NCI-H460; assay: Inhibition of MAPK/ERK signaling pathway in human NCI-H460 cells exogenously expressing wildtype DOT1L (unknown origin) (1 to 416 residues) assessed as decrease in RAF1 expression at 5 uM by Western blot analysis; format: cell-based
[29] = tested on: NCI-H460; assay: Effect on H3K4me1 expression in human NCI-H460 cells exogenously expressing DOT1L R231Q mutant (unknown origin) (1 to 416 residues) at 5 uM by Western blot analysis; format: functional, cell-based

CC(C)(C)c1ccc(NC(=O)NCCCN(CCCN2CCOCC2)CC2(O)CCN(c3nc(Cl)nc4sccc34)C2)cc1 (centres undefined)
Activity [1]: Non-Toxic
inhibition [2]: inactive
inhibition [3]: Active
Activity [4]: inactive
Activity [5]: inactive
inhibition at 5 µM [6]: 72.8%
Activity [7]: Active
Cmax [8]: 3000 ng/mL
inhibition [9]: Active
Activity [10]: inactive
Activity [11]: 38.3%
Activity [12]: 60.4%
Activity [13]: Active
AUC(0-inf) [14]: 6200 ng·h/mL
inhibition [15]: Active
inhibition [16]: Active
inhibition [17]: Active
MRT inf [18]: 4.41 h
Activity [19]: Dose-Dependent Effect
Activity [20]: inactive
inhibition at 5 µM [21]: 68.9%
inhibition [22]: Active
Activity [23]: Active
AUC(0-inf) [24]: 5710 ng·h/mL
Vd [25]: 14.4 L/kg
inhibition [26]: Active
inhibition at 5 µM [27]: 42%
inhibition [28]: inactive
Activity [29]: inactive
